{
  "source": "patent US9884839B2",
  "about": "“Inhibitors of 17Beta-hydroxysteroid dehydrogenases type 1 and type 2” (ElexoPharm GmbH, priority 2014, dated 2018)",
  "key": {"[1]": {"biological_target": "T1, rat 17β-HSD1 (Rattus norvegicus, UniProt P51657)", "T1 construct": "made in house; host or cells: HEK293 cells, transient transfection; 1,000 g supernatant of the cell lysate", "T1 sequence (P51657 1-344)": "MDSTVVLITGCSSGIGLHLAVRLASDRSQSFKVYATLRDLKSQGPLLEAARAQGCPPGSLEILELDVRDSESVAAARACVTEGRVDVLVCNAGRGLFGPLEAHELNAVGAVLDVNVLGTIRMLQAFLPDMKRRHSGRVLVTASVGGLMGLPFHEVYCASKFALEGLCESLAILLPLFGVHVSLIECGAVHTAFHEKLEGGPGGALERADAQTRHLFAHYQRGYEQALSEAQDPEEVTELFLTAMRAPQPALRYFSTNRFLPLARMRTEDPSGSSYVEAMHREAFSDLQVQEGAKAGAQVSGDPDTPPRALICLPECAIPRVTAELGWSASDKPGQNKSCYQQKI", "assay": "Inhibition of rat 17β-HSD1 (recombinant, HEK293 lysate)", "format": "biochemical", "settings": "read-out: % Inhibition r17β-HSD1; for inhibition at […]: Cmpd conc. 250 nM"}, "[2]": {"assay": "in vitro", "settings": "human, pooled human liver S9 fraction"}, "[3]": {"biological_target": "T2, mouse 17β-HSD1 (Mus musculus, UniProt P51656)", "T2 construct": "made in house; host or cells: HEK293 cells, transient transfection; 1,000 g supernatant of the cell lysate", "T2 sequence (P51656 1-344)": "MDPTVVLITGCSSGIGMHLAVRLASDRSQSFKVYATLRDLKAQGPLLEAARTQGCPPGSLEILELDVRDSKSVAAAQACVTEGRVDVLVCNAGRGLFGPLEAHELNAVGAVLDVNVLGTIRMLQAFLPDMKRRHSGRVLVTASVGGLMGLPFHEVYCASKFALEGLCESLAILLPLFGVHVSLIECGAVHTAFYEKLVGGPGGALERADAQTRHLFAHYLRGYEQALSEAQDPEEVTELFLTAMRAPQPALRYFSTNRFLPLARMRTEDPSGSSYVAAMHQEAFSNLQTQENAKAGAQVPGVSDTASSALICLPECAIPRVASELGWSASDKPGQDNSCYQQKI", "assay": "Inhibition of mouse 17β-HSD1 (recombinant, HEK293 lysate)", "format": "biochemical"}, "[4]": {"biological_target": "T3, human 17β-HSD2 (Homo sapiens, UniProt P37059)", "T3 construct": "17β-HSD2 was obtained from the microsomal fraction; from tissue; host or cells: human placenta, microsomal fraction", "T3 sequence (P37059 1-387)": "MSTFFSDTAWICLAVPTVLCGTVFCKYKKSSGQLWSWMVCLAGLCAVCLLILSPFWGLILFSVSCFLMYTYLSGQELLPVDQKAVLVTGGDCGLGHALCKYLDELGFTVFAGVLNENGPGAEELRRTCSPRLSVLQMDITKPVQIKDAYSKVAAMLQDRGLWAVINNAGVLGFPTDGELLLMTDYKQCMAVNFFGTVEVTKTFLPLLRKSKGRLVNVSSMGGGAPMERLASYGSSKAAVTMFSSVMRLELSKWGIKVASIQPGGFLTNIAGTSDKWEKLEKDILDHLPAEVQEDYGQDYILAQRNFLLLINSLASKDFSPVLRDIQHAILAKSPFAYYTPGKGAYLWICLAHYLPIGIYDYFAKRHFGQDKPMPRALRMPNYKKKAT", "assay": "Inhibition of human 17β-HSD2 (conversion of [3H]-E2 to E1)", "format": "biochemical", "settings": "read-out: IC50 [nM] h17β-HSD2"}, "[5]": {"biological_target": "T4, mouse 17β-HSD2 (Mus musculus, UniProt P51658)", "T4 construct": "The pellet fractions containing the microsomal 17β-HSD2 were used for the determination of E1 formation; from tissue; host or cells: mouse liver, microsomal fraction", "T4 sequence (P51658 1-381)": "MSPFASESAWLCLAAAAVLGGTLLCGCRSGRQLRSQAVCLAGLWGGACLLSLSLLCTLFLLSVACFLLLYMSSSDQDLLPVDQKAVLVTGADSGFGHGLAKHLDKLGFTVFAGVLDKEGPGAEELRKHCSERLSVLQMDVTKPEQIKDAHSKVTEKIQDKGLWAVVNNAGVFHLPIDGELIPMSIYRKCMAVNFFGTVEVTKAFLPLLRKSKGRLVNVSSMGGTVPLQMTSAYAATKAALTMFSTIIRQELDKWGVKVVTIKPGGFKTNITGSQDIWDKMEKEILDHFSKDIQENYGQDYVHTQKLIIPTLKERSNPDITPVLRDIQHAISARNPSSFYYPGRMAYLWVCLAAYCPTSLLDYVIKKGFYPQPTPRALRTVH", "assay": "Inhibition of mouse 17β-HSD2 (liver microsomal fraction)", "format": "biochemical", "settings": "for inhibition at 1 µM: read-out: Inhibition @ 1 μM m17β-HSD2"}, "[6]": {"settings": "human liver S9, 1 mg/mL; unit not given"}, "[7]": {"biological_target": "T5, human 17β-HSD1 (Homo sapiens, UniProt P14061)", "T5 construct": "For the partial purification of 17β-HSD1, the cytosolic fraction was precipitated with ammonium sulfate; from tissue; host or cells: human placenta, cytosolic fraction, ammonium sulfate precipitate", "T5 sequence (P14061 1-328)": "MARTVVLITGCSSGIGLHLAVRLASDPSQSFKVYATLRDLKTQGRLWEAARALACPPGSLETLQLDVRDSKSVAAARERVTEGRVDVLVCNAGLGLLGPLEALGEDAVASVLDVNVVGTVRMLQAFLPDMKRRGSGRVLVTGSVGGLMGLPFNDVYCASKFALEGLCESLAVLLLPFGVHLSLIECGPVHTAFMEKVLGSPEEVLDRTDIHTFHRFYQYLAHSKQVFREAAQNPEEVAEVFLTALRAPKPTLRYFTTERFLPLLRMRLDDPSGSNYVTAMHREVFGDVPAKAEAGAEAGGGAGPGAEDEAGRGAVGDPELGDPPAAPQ", "assay": "Inhibition of human 17β-HSD1 (conversion of [3H]-E1 to E2, HPLC radioflow detection)", "format": "biochemical", "settings": "read-out: IC50 [nM] h17β-HSD1"}, "[8]": {"biological_target": "T6, rat 17β-HSD2 (Rattus norvegicus, UniProt Q62730)", "T6 construct": "The pellet fractions containing the microsomal 17β-HSD2 were used for the determination of E1 formation; from tissue; host or cells: rat liver, microsomal fraction", "T6 sequence (Q62730 1-381)": "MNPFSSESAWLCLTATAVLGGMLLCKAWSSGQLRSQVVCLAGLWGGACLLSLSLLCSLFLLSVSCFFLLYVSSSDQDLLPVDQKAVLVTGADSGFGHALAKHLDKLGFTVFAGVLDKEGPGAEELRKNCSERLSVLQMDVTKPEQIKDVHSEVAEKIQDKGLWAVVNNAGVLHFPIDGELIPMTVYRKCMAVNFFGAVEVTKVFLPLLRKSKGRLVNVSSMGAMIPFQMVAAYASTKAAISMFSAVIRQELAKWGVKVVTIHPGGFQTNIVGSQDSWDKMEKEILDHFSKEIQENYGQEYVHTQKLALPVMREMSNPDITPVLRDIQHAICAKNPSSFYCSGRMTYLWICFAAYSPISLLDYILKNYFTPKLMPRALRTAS", "assay": "Inhibition of rat 17β-HSD2 (liver microsomal fraction)", "format": "biochemical", "settings": "read-out: % Inhibition r17β-HSD2"}, "[9]": {"settings": "read-out: Inhibition @ 1 μM m17β-HSD1"}, "[10]": {"settings": "human placental cytosolic enzyme, E1 500 nM, NADH, Tables 1, 4-11"}},
  "note": "Where two headings read alike, the source gives them in different places.",
  "data": [
    {"smiles": "Cc1cc(-c2ccc(C(=O)c3c(F)ccc(O)c3F)s2)cc(C)c1O", "note": "[Compound 24, (2,6-Difluoro-3-hydroxy-phenyl)-[5-(4-hydroxy-3,5-dimethyl-phenyl)-thiophen-2-yl]-methanone]", "values": [
      {"measurement": "inhibition at […]", "setting": "[1]", "result": 63, "unit": "%"},
      {"measurement": "half-life at 1 µM", "setting": "[2]", "result": 2.6, "unit": "min"},
      {"measurement": "IC50", "setting": "[3]; recombinant mouse enzyme, E1 10 nM, NADPH, read-out: IC50 m17β-HSD1", "result": 397, "unit": "nM"},
      {"measurement": "IC50", "setting": "[4]", "result": 7, "unit": "nM"},
      {"measurement": "inhibition at 1 µM", "setting": "[5]", "result": 76, "unit": "%"},
      {"measurement": "CLint", "setting": "[6]", "result": 272.7},
      {"measurement": "IC50", "setting": "[7]", "result": 0.4, "unit": "nM"},
      {"measurement": "inhibition at […]", "setting": "[8]", "result": 35, "unit": "%"}
    ]},
    {"smiles": "COc1c(C)cc(-c2ccc(C(=O)c3c(F)ccc(O)c3F)s2)cc1C", "note": "[Compound 16, (2,6-Difluoro-3-hydroxy-phenyl)-[5-(4-methoxy-3,5-dimethyl-phenyl)-thiophen-2-yl]-methanone]", "values": [
      {"measurement": "inhibition at […]", "setting": "[1]", "result": 39, "unit": "%"},
      {"measurement": "half-life at 1 µM", "setting": "[2]", "result": 8.5, "unit": "min"},
      {"measurement": "inhibition at 1 µM", "setting": "[3]; [9]", "result": 59, "unit": "%"},
      {"measurement": "IC50", "setting": "[4]", "result": 18, "unit": "nM"},
      {"measurement": "inhibition at 1 µM", "setting": "[5]", "result": 55, "unit": "%"},
      {"measurement": "CLint", "setting": "[6]", "result": 81.3},
      {"measurement": "IC50", "setting": "[7]; [10]", "result": 0.9, "unit": "nM"},
      {"measurement": "inhibition at […]", "setting": "[8]", "result": 27, "unit": "%"}
    ]},
    {"smiles": "O=C(c1ccc(-c2ccc(F)cc2F)s1)c1cc(F)c(F)c(O)c1F", "note": "[Compound 40, [5-(2,4-Difluoro-phenyl)-thiophen-2-yl]-(2,4,5-trifluoro-3-hydroxy-phenyl)-methanone]", "values": [
      {"measurement": "inhibition at […]", "setting": "[1]", "result": 58, "unit": "%"},
      {"measurement": "inhibition at 1 µM", "setting": "[3]; Tables 4 and 6, no % sign and concentration not given, Table 1 lists these compounds as inhibition @ 1 μM, read-out: IC50 [nM] or % inhibition m17β-HSD1 (bare number, kind not marked)", "result": 27.5, "unit": "%"},
      {"measurement": "inhibition at 1 µM", "setting": "[3]; [9]", "result": 28, "unit": "%"},
      {"measurement": "IC50", "setting": "[4]", "result": 1.4, "unit": "nM"},
      {"measurement": "IC50", "setting": "[5]; read-out: IC50 m17β-HSD2", "result": 326, "unit": "nM"},
      {"measurement": "IC50", "setting": "[7]", "result": 7.2, "unit": "nM"},
      {"measurement": "inhibition at […]", "setting": "[8]", "result": 86, "unit": "%"}
    ]},
    {"smiles": "COc1c(Cl)cc(-c2ccc(C(=O)c3c(F)ccc(O)c3F)s2)cc1CN1CCNCC1", "note": "[Compound 30, [5-(3-Chloro-4-methoxy-5-piperazin-1-ylmethyl-phenyl)-thiophen-2-yl]-(2,6-difluoro-3-hydroxy-phenyl)-methanone]", "values": [
      {"measurement": "inhibition at 0.5 µM", "setting": "[1]; Cmpd conc. 500 nM", "result": 51, "unit": "%"},
      {"measurement": "half-life at 1 µM", "setting": "[2]", "result": 6.5, "unit": "min"},
      {"measurement": "inhibition at 1 µM", "setting": "[3]; [9]", "result": 25, "unit": "%"},
      {"measurement": "IC50", "setting": "[4]", "result": 26, "unit": "nM"},
      {"measurement": "inhibition at 1 µM", "setting": "[5]", "result": 41, "unit": "%"},
      {"measurement": "CLint", "setting": "[6]", "result": 106.8},
      {"measurement": "IC50", "setting": "[7]; [10]", "result": 4.7, "unit": "nM"},
      {"measurement": "inhibition at 0.5 µM", "setting": "[8]", "result": 55, "unit": "%"}
    ]}
  ]
}
